Measured values as given in patent EP0470144B1, “BETA-HYDROXAMATE D-ASPARTIC ACID FOR TREATMENT OF VIRAL INFECTIONS AND TUMOURS” (priority 1989, dated 1990).

Assays:
[1] = system: leucémie L1210; assay: Antitumour activity in the L1210 leukaemia model, survival; type: in vivo, souris B6D2F1/J; details: for Nombre d'animaux survivants: at 30 days
Description: L'activité antitumorale du DAH et du LAH a été étudiée sur le modèle de leucémie L1210. Les cellules leucémiques L1210 sont maintenues par passages intrapéritonéaux dans la souris B6D2F1/J mâle. […] La durée d'observation est de 30 jours.

[2] = LD50 comparison of DAH and LAH; details: in vivo

Question: What does the source list for N[C@@H](CC(=O)NO)C(=O)O [LAH, L-aspartique acide β hydroxamate, reference compound]?
Answer: T/Cx100 ([1]; 1,5 g/kg x4/j, day 1): 50%; Nombre d'animaux survivants ([1]; 1,5 g/kg x4/j, day 1): 0/5; T/Cx100 ([1]; 1 g/kg x4/j, days 1,2): 65%; Nombre d'animaux survivants ([1]; 1 g/kg x4/j, days 1,2): 0/5; activité antitumorale ([1]; lighter protocol than for DAH): on n'a pas observé d'activité antitumorale; toxicité ([1]; lighter protocol, treated animals died before the control group): toxicité très importante; toxicité ([1]; same dosage conditions as DAH (1 g/kg, 4 times a day, 3 days)): très toxique; DL 50 % [2]: 2,5 g/kg
